Data from article PMC5013553, “A substrate-driven allosteric switch that enhances PDI catalytic activity” (Nature Communications, 2016).

Assays:
[1] = target: T1, Protein disulfide isomerase (PDI) (Homo sapiens, UniProt P07237, I289A); experiment: ANS fluorescence binding (λex […] nm), displaced by bepristats, absent with I272A
T1 construct: gene P4HB; isolated b′x domain; full-length PDI
T1 sequence (P07237 236-367 I289A limits assumed): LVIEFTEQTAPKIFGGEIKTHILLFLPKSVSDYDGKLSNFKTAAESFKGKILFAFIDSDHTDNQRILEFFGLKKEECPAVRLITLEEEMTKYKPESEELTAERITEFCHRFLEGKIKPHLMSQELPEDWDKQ

[2] = target: T2, Protein disulfide isomerase (PDI) (Homo sapiens, UniProt P07237); experiment: insulin turbidimetric and di-eosin-GSSG reductase assays; type: biochemical; design: gene P4HB; full-length PDI
T2 sequence (P07237 18-508): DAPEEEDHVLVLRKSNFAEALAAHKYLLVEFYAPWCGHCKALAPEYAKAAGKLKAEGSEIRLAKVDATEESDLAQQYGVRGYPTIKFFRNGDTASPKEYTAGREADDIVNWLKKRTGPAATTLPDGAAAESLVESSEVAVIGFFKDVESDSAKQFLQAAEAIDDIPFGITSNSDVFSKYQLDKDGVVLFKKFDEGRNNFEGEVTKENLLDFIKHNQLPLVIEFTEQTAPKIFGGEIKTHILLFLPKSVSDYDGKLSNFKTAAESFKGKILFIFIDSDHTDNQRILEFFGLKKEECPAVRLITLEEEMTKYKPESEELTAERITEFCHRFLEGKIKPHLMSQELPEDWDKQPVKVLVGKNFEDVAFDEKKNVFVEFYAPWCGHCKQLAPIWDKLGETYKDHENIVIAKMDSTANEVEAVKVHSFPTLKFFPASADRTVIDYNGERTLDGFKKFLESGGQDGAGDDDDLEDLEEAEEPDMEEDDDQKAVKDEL

[3] = target: T2, Protein disulfide isomerase (PDI); experiment: insulin turbidimetric reductase assay; ANS displacement from PDI and b′x, intrinsic Trp fluorescence, domain mapping; type: biochemical; design: gene P4HB; full-length PDI; also abb′ (residues 1–331), b′xa′ (residues 219–462) and b′x

| IC50 [3] [nM] | Molecule | also measured |
| --- | --- | --- |
|  | O=S(=O)(O)c1cccc2cccc(Nc3ccccc3)c12 [ANS, 1-anilinonaphthalene-8-sulfonic acid] | ANS fluorescence binding (λex 370 nm), displaced by bepristats, absent with I272 [1]: ANS fluorescence was prominent on incubation with the isolated b′x domain and weak on incubation with isolated a, a′ |
|  | C[C@@H]1O[C@@H](OC[C@H]2O[C@@H](Oc3c(-c4ccc(O)c(O)c4)oc4cc(O)cc(O)c4c3=O)[C@H](O)[C@@H](O)[C@@H]2O)[C@H](O)[C@H](O)[C@H]1O [Q-3-R, quercetin-3-rutinoside] | insulin turbidimetric and di-eosin-GSSG reductase assays [2]: these other inhibitors all blocked PDI-mediated cleavage of di-eosin-GSSG when used at concentrations required to inhibit activity |
| ~700 | CCN(C)C(=O)C1(CCOc2ccccc2)CCN(Cc2ccc(O)c(Cl)c2)CC1 [bepristat 1a] |  |
| ~1200 | bepristat 2a |  |
